From patent US20180340156A1, “PURIFICATION OF A SOLUBLE AND ACTIVE FORM OF ASPARTATE N-[…]” (The University of Toledo, priority 2015, published 2018) come the findings set out here.

Broadly, the Km is the concentration of substrate that gives half-maximal velocity.

Entries after “also recorded” stand apart in the source; their conditions may differ.

Data set [1] concerns the target T1, MBP-ANAT fusion enzyme (Homo sapiens, UniProt Q8N9F0).
T1 construct: the full length ANAT enzyme has been expressed and purified in a fusion construct with MBP; made in house; host or cells: E. coli NiCo21(DE3)
T1 sequence (Q8N9F0 1-302): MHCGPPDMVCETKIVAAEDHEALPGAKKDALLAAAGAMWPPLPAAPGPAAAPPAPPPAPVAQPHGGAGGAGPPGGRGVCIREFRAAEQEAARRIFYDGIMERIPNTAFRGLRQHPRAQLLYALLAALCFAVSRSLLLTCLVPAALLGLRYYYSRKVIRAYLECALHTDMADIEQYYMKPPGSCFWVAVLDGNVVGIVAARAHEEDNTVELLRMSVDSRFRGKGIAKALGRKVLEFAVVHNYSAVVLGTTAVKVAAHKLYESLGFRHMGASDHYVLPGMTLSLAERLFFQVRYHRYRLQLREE
Description: Effect of detergents on ANAT activity (DTNB-based assay, saturating substrates). In kind it is biochemical. Particulars: incubation with detergent at CMC. How it is done:
This assay is illustrated in FIGS. 4A-4B.
(§1) The effect of detergent properties on ANAT activity was tested using a variety of different detergents, each at their critical micelle concentration (CMC) levels. All measurements were conducted at least in duplicate by using the DTNB-based assay at saturating substrates levels. The effect of an organic solvent on ANAT activity was also evaluated by varying the DMSO concentration in the assay from 0 to 50%. To test the stability of the purified MBP-ANAT-his construct, the enzyme was stored at 4° C. for several days and activity was monitored daily. To test for the optimal long term storage conditions, the enzyme activity was followed through multiple freeze-thaw cycles between −80° C. and room temperature.

For data set [2], the target named is T1, MBP-ANAT fusion enzyme. Description: DTNB-based ANAT enzyme activity assay, substrate kinetics. The conditions noted are these: for catalytic efficiency as alternative substrate relative to physiological substrate: alternative acetyl group acceptor vs L-aspartate; for alternative substrate activity: screen of amino acid library of 160 compounds. In kind it is biochemical. How it is done: (§2) The ANAT activity was measured by an established DTNB-based assay in which the coenzyme A product participates in a thiol exchange reaction with DTNB. This assay is illustrated in FIGS. 4A-4B. The resulting TNB^2− ion was monitored at 412 nm (c=14.15 mM^−1cm^−1) using a SpectraMax 190 spectrophotometer plate reader (Molecular Devices, CA).
(§3) The DTNB-based assay was used to measure the kinetic parameters for the physiological substrates and some alternative ANAT substrates.
The kinetic parameters for the physiological substrates of ANAT were determined using the assay described above by varying the concentrations of both substrates and fitting the data to the equation for a sequential kinetic mechanism (eq. 1). […] A screen for alternative substrates was conducted using a customized amino acid library containing a total of 160 compounds.

The target of data set [3] is ANAT fusion enzyme with GST (Homo sapiens, UniProt Q8N9F0). Particulars: L-aspartate as substrate. How it is done:
as §2, §3

The target in another data set is T2, membrane-bound ANAT (Homo sapiens, UniProt Q8N9F0).
T2 construct: polyhistidine tag (C); made in house; host or cells: E. coli BL21(DE3), membrane fraction
T2 sequence (Q8N9F0 1-302): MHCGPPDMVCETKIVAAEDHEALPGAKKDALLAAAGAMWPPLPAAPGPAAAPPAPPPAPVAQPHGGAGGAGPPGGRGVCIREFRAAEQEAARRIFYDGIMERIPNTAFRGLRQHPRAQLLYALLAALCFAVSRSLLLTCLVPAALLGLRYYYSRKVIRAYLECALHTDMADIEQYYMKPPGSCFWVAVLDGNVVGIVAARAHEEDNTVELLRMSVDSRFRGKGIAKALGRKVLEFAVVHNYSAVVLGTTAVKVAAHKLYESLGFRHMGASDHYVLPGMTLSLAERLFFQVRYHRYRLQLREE
Description: Detergent solubilization/extraction of native ANAT from membrane fraction. How it is done: The human nat8l gene was cloned into the pETDEST42 plasmid using the Gateway cloning technology (Life Technologies). This plasmid was used to transform E. coli BL21(DE3) cells for protein production. The cells were grown at 37° C. to an A600 of 0.6-0.8 in Luria-Bertani (LB) medium containing 100 μg/mL ampicillin, and gene expression was then induced with 1 mM isopropyl […] (IPTG) at 28° C. for 5 hours. The cell pellet was resuspended in buffer A [50 mM HEPES, 500 mM NaCl and 10% glycerol (pH 7.4)] and lysed by sonication on ice for 8 min with 30 s pulse on and 2 min pulse off cycle. The cell lysate was centrifuged at 11,000 rpm for 30 minutes to pellet cell debris and unlysed cells. The membrane fraction was collected by high-speed centrifugation of the supernatant at 40,000 rpm for 1 h. Solubilization trials of ANAT from the membrane fraction were conducted with a variety of different detergents that include ionic, non-ionic, and zwitterionic detergents. Twenty microliter aliquots of the resuspended membrane fraction were mixed with different amounts of stock detergent solutions each prepared at 10 times their critical micelle concentration (CMC), leading to a final concentration of 1.5×CMC and […]. These solutions were incubated at room temperature for 1 h or at 4° C. overnight in a rocking platform.

Substrate in data set [4]: CC(=O)SCCNC(=O)CCNC(=O)[C@H](O)C(C)(C)COP(=O)(O)OP(=O)(O)OC[C@H]1O[C@@H](n2cnc3c(N)ncnc32)[C@H](O)[C@@H]1OP(=O)(O)O
Description: purified protein, by the assay type. The conditions noted are these: other: acetyl-CoA as substrate, MBP-ANAT fusion, sequential mechanism fit, pH 7.4.

Data set [5] is described as follows: Enzyme stability on storage at 4° C. and freeze-thaw cycles. In kind it is physicochemical. Particulars: stored at 4° C. for several days to one week, assayed daily. How it is done: as §1

As to `CCCCCCCCO[C@@H]1O[C@H](CO)[C@@H](O)[C@H](O)[C@H]1O` [octylglucoside], the “loss of catalytic activity” value at MBP-ANAT fusion enzyme [1] is on record as “significant loss of activity”.
For `N[C@@H](CC(=O)O)C(=O)O` [L-aspartate], the Michaelis-Menten constant (Km) on MBP-ANAT fusion enzyme [2] (L-aspartate as substrate, MBP-ANAT fusion, sequential mechanism fit, pH 7.4) was 160 µM; in data set [3] it was 100 µM.
For `CCCCCCCCCCCCOCCOCCOCCOCCOCCOCCOCCOCCO` [C12E8], the “extraction efficiency of membrane-bound ANAT” value on membrane-bound ANAT (non-ionic detergents, 1.5 CMC) is “highest extraction efficiency”.
Regarding `CCCCCCCCCCCCO[C@@H]1O[C@H](CO)[C@@H](O[C@H]2O[C@H](CO)[C@@H](O)[C@H](O)[C@H]2O)[C@H](O)[C@H]1O` [DDM], at membrane-bound ANAT (8.7 CMC), the “extraction efficiency of membrane-bound ANAT” value is recorded as “effective”.
Turning to `N[C@@H](CCC(=O)O)C(=O)O` [L-glutamate], at MBP-ANAT fusion enzyme [2], the “catalytic efficiency as alternative substrate relative to physiological substrate” value is “less than 1%” and the “alternative substrate activity” value was “profound loss of activity”.
Turning to `CCCCCCCCCCCC[N+](C)(C)[O-]` [LDAO], the “loss of catalytic activity” value at MBP-ANAT fusion enzyme [1] is reported as “nearly complete loss of catalytic activity”.
As to `OC[C@H]1O[C@H](O[C@H]2[C@H](O)[C@@H](O)[C@H](OCCCCCC3CCCCC3)O[C@@H]2CO)[C@H](O)[C@@H](O)[C@@H]1O` [Cymal 5], at MBP-ANAT fusion enzyme [1], the “loss of catalytic activity” value was “significant loss of activity”. Besides, at membrane-bound ANAT (8.7 CMC), the “extraction efficiency of membrane-bound ANAT” value is on record as “effective”.
On to `CC(C(=O)O)[C@H](N)C(=O)O` (stereo partly drawn) [β-methylaspartate], for which the “alternative substrate activity” value at MBP-ANAT fusion enzyme [2] is reported as “best of these few alternative substrates; also recorded: profound loss of activity”.
As to `NC(C(=O)O)C(N)C(=O)O` (stereo not drawn) [2,3-diaminosuccinate], at MBP-ANAT fusion enzyme [2], the “catalytic efficiency as alternative substrate relative to physiological substrate” value is listed as “less than 10%”.
For `CCCCCCCCCCCCOS(=O)(=O)[O-].[Na+]` [SDS], the “loss of catalytic activity” value on MBP-ANAT fusion enzyme [1] is listed as “nearly complete loss of catalytic activity”.

B1: MBP-ANAT fusion enzyme (Homo sapiens) (protein)
chain: MHCGPPDMVCETKIVAAEDHEALPGAKKDALLAAAGAMWPPLPAAPGPAAAPPAPPPAPVAQPHGGAGGAGPPGGRGVCIREFRAAEQEAARRIFYDGIMERIPNTAFRGLRQHPRAQLLYALLAALCFAVSRSLLLTCLVPAALLGLRYYYSRKVIRAYLECALHTDMADIEQYYMKPPGSCFWVAVLDGNVVGIVAARAHEEDNTVELLRMSVDSRFRGKGIAKALGRKVLEFAVVHNYSAVVLGTTAVKVAAHKLYESLGFRHMGASDHYVLPGMTLSLAERLFFQVRYHRYRLQLREE
As to B1, in data set [4], the Km was 3.1 µM.

B2: native enzyme: human aspartate N-acetyltransferase without the MBP fusion domain (protein, UniProt Q8N9F0 1-302, looked up)
N-acetylaspartate synthetase: MHCGPPDMVCETKIVAAEDHEALPGAKKDALLAAAGAMWPPLPAAPGPAAAPPAPPPAPVAQPHGGAGGAGPPGGRGVCIREFRAAEQEAARRIFYDGIMERIPNTAFRGLRQHPRAQLLYALLAALCFAVSRSLLLTCLVPAALLGLRYYYSRKVIRAYLECALHTDMADIEQYYMKPPGSCFWVAVLDGNVVGIVAARAHEEDNTVELLRMSVDSRFRGKGIAKALGRKVLEFAVVHNYSAVVLGTTAVKVAAHKLYESLGFRHMGASDHYVLPGMTLSLAERLFFQVRYHRYRLQLREE
As to B2, the “loss of activity on storage” value in data set [5] is “substantial loss of catalytic activity”.
